Data taken from patent US20250270213A1, “PI3Ka INHIBITORS” (Synnovation Therapeutics, Inc., priority 2022, published 2025).

test system: T47D (PIK3CA H1047R) cells; test: pS473 AKT assay with 2.5% FBS, T47D cells; assay type: cell-based; conditions: Homo sapiens, pSer473 AKT, DMEM with 2.5% FBS, 2 h treatment, read-out: T47D_IC50
Summary of the method: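 In-cell chemiluminescent ELISA of AKT Ser473 phosphorylation, using anti-pSer473 primary and HRP secondary antibodies on fixed cells. T47D (PIK3CA H1047R) cells had 2 h of compound treatment in DMEM containing 2.5% FBS; IC50 derived from dose-response.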

Structure (SMILES) | IC50 [µM]
CCn1c(=O)c2cc(C)cc(C(C)Nc3ccc(Cl)nc3C(=O)O)c2c2cnn(C)c21 (centres unmarked) [Compound I-22, 6-Chloro-3-((1-(4-ethyl-3,7-dimethyl-5-oxo-4,5-dihydro-3H-pyrazolo[3,4-c]isoquinolin-9-yl)ethyl)amino)picolinic acid] | < 1
CCn1ncc2c3c(C(C)Nc4ccccc4C(=O)O)cc(C)cc3c(=O)n(CC)c21 (centres unmarked) [Compound I-23, 2-((1-(3,4-Diethyl-7-methyl-5-oxo-4,5-dihydro-3H-pyrazolo[3,4-c]isoquinolin-9-yl)ethyl)amino)benzoic acid] | < 1
CCn1ncc2c3c(C(C)Nc4ccc(F)cc4C(=O)O)cc(C)cc3c(=O)n(CC)c21 (centres unmarked) [Compound I-24, 2-((1-(3,4-Diethyl-7-methyl-5-oxo-4,5-dihydro-3H-pyrazolo[3,4-c]isoquinolin-9-yl)ethyl)amino)-5-fluorobenzoic acid] | < 1
CCn1ncc2c3c(C(C)Nc4ccc(C)nc4C(=O)O)cc(C)cc3c(=O)n(CC)c21 (centres unmarked) [Compound I-25, 3-((1-(3,4-Diethyl-7-methyl-5-oxo-4,5-dihydro-3H-pyrazolo[3,4-c]isoquinolin-9-yl)ethyl)amino)-6-methylpicolinic acid] | < 1
CCCn1cc2c3c(C(C)Nc4ccccc4C(=O)O)cc(C)cc3c(=O)n(C)c2n1 (centres unmarked) [Compound I-26, 2-((1-(4,7-Dimethyl-5-oxo-2-propyl-4,5-dihydro-2H-pyrazolo[3,4-c]isoquinolin-9-yl)ethyl)amino)benzoic acid] | < 1
Cc1cc(C(C)Nc2ccccc2C(=O)O)c2c(c1)c(=O)n(C)c1nn(C3CCOCC3)cc21 (centres unmarked) [Compound I-27, 2-((1-(4,7-Dimethyl-5-oxo-2-(tetrahydro-2H-pyran-4-yl)-4,5-dihydro-2H-pyrazolo[3,4-c]isoquinolin-9-yl)ethyl)amino)benzoic acid] | < 1
Cc1cc(C(C)Nc2ccccc2C(=O)O)c2c(c1)c(=O)n(C)c1nn(CCc3ccccc3)cc21 (centres unmarked) [Compound I-28, 2-((1-(4,7-Dimethyl-5-oxo-2-phenethyl-4,5-dihydro-2/I-pyrazolo[3,4-c]isoquinolin-9-yl)ethyl)amino)benzoic acid] | < 1
Cc1cc(C(C)Nc2ccccc2C(=O)O)c2c(c1)c(=O)n(C)c1nn(-c3ccnc(F)c3)cc21 (centres unmarked) [Compound I-29, 2-((1-(2-(2-Fluoropyridin-4-yl)-4,7-dimethyl-5-oxo-4,5-dihydro-2H-pyrazolo[3,4-c]isoquinolin-9-yl)ethyl)amino)benzoic acid] | < 1
Cc1cc(C(C)Nc2ccccc2C(=O)O)c2c(c1)c(=O)n(C)c1nn(-c3cncnc3)cc21 (centres unmarked) [Compound I-30, 2-((1-(4,7-Dimethyl-5-oxo-2-(pyrimidin-5-yl)-4,5-dihydro-2H-pyrazolo[3,4-c]isoquinolin-9-yl)ethyl)amino)benzoic acid] | < 1
Cc1cc(C(C)Nc2ccc(Cl)nc2C(=O)O)c2c(c1)c(=O)n(C)c1nn(-c3ccccc3C)cc21 (centres unmarked) [Compound I-31, 6-Chloro-3-((1-(4,7-dimethyl-5-oxo-2-(o-tolyl)-4,5-dihydro-2H-pyrazolo[3,4-c]isoquinolin-9-yl)ethyl)amino)picolinic acid] | < 1
COc1ccc2c3c(C(C)Nc4ccccc4C(=O)O)cc(C)cc3c(=O)n(C)c2n1 (centres unmarked) [Compound I-32, 2-[1-(3-Methoxy-5,8-dimethyl-6-oxo-benzo[c][1,8]naphthyridin-10-yl)ethylamino]benzoic acid] | < 1
Cc1cc(C(C)Nc2ccccc2C(=O)O)c2c(c1)c(=O)n(C)c1nc(N(C)C)ccc21 (centres unmarked) [Compound I-33, 2-[1-[3-(Dimethylamino)-5,8-dimethyl-6-oxo-benzo[c][1,8]naphthyridin-10-yl]ethylamino]benzoic acid] | < 1
COCCOc1ccc2c3c(C(C)Nc4ccccc4C(=O)O)cc(C)cc3c(=O)n(C)c2n1 (centres unmarked) [Compound I-34, 2-[1-[3-(2-Methoxyethoxy)-5,8-dimethyl-6-oxo-benzo[c][1,8]naphthyridin-10-yl]ethylamino]benzoic acid] | < 1
CC(Nc1ccccc1C(=O)O)c1cc(Cl)cc2c(=O)n(C)c3c(cnn3C)c12 (centres unmarked) [Compound I-35, 2-((1-(7-Chloro-3,4-dimethyl-5-oxo-4,5-dihydro-3H-pyrazolo[3,4-c]isoquinolin-9-yl)ethyl)amino)benzoic acid] | < 1
Cc1cc(C(C)Nc2ccccc2C(=O)O)c2c(c1)c(=O)n1c3c2cnn3CCC1 (centres unmarked) [Compound I-36, 2-((1-(8-Methyl-6-oxo-4,5-dihydro-3H,6H-2,2a,5a-triazaaceanthrylen-10-yl)ethyl)amino)benzoic acid] | < 1
Cc1cc(C(C)Nc2ccc(C)nc2C(=O)O)c2c(c1)c(=O)n1c3c2cnn3CCC1 (centres unmarked) [Compound I-37, 6-Methyl-3-((1-(8-methyl-6-oxo-4,5-dihydro-3H,6H-2,2a,5a-triazaaceanthrylen-10-yl)ethyl)amino)picolinic acid] | < 1
Cc1cc(C(C)Nc2ccccc2C(=O)O)c2c(c1)c(=O)n1c3c2cnn3C(C)CC1 (centres unmarked) [Compound I-38, 2-((1-(3,8-Dimethyl-6-oxo-4,5-dihydro-3H,6H-2,2a,5a-triazaaceanthrylen-10-yl)ethyl)amino)benzoic acid] | < 1
Cc1cc(C(C)Nc2ccc(Cl)nc2C(=O)O)c2c(c1)c(=O)n1c3c2cnn3C(C)CC1 (centres unmarked) [Compound I-39, 6-Chloro-3-((1-(3,8-dimethyl-6-oxo-4,5-dihydro-3H,6H-2,2a,5a-triazaaceanthrylen-10-yl)ethyl)amino)picolinic acid] | < 1
Cc1cc(C(C)Nc2ccc(Cl)nc2-c2cnn(C)c2)c2c(c1)c(=O)n(C)c1c2cnn1C1CCN(S(C)(=O)=O)CC1 (centres unmarked) [Example 183, 9-[1-[[6-chloro-2-(1-methylpyrazol-4-yl)-3-pyridyl]amino]ethyl]-4,7-dimethyl-3-(1-methylsulfonyl-4-piperidyl)pyrazolo[3,4-c]isoquinolin-5-one] | < 1
COC(=O)N1CCC(n2ncc3c4c(C(C)Nc5ccc(Cl)nc5-c5cnn(C)c5)cc(C)cc4c(=O)n(C)c32)CC1 (centres unmarked) [Example 184, methyl 4-[9-[1-[[6-chloro-2-(1-methylpyrazol-4-yl)-3-pyridyl]amino]ethyl]-4,7-dimethyl-5-oxo-pyrazolo[3,4-c]isoquinolin-3-yl]piperidine-1-carboxylate] | < 1
Cc1cc(C(C)Nc2ccc(Cl)nc2-c2cnn(C)c2)c2c(c1)c(=O)n(C)c1c2cnn1C1CCN(S(=O)(=O)C2CC2)CC1 (centres unmarked) [Example 185, 9-[1-[[6-chloro-2-(1-methylpyrazol-4-yl)-3-pyridyl]amino]ethyl]-3-(1-cyclopropylsulfonyl-4-piperidyl)-4,7-dimethyl-pyrazolo[3,4-c]isoquinolin-5-one] | < 1
Cc1cc(C(C)Nc2ccc(Cl)nc2-c2cnn(C)c2)c2c(c1)c(=O)n(C)c1c2cnn1C1CCN(C(=O)N(C)C)CC1 (centres unmarked) [Example 186, 4-(9-(1-((6-chloro-2-(1-methyl-1H-pyrazol-4-yl)pyridin-3-yl)amino)ethyl)-4,7-dimethyl-5-oxo-4,5-dihydro-3H-pyrazolo[3,4-c]isoquinolin-3-yl)-N,N-dimethylpiperidine-1-carboxamide] | < 1
CC(=O)N1CCC(n2ncc3c4c(C(C)Nc5ccc(Cl)nc5-c5ccc(=O)n(C)c5)cc(C)cc4c(=O)n(C)c32)CC1 (centres unmarked) [Example 187, 3-(1-acetylpiperidin-4-yl)-9-(1-((6-chloro-1′-methyl-6′-oxo-1′,6′-dihydro-[2,3′-bipyridin]-3-yl)amino)ethyl)-4,7-dimethyl-3,4-dihydro-5H-pyrazolo[3,4-c]isoquinolin-5-one] | < 1
CC(=O)N1CCC(n2ncc3c4c(C(C)Nc5ccc(Cl)nc5-c5ncn(C)n5)cc(C)cc4c(=O)n(C)c32)CC1 (centres unmarked) [Example 188, 3-(1-acetylpiperidin-4-yl)-9-(1-((6-chloro-2-(1-methyl-1H-1,2,4-triazol-3-yl)pyridin-3-yl)amino)ethyl)-4,7-dimethyl-3,4-dihydro-5H-pyrazolo[3,4-c]isoquinolin-5-one] | < 1
Cc1cc(C(C)Nc2ccc(C)nc2-c2cnn(C)c2)c2c(c1)c(=O)n(C)c1c2cnn1C1CCN(S(C)(=O)=O)CC1 (centres unmarked) [Example 189, 4,7-dimethyl-9-(1-((6-methyl-2-(1-methyl-1H-pyrazol-4-yl)pyridin-3-yl)amino)ethyl)-3-(1-(methylsulfonyl)piperidin-4-yl)-3,4-dihydro-5H-pyrazolo[3,4-c]isoquinolin-5-one] | < 1
Cc1cc(C(C)Nc2ccc(Cl)nc2-c2ncn(C)n2)c2c(c1)c(=O)n(C)c1c2cnn1C1CCN(S(C)(=O)=O)CC1 (centres unmarked) [Example 190, 9-(1-((6-chloro-2-(1-methyl-1H-1,2,4-triazol-3-yl)pyridin-3-yl)amino)ethyl)-4,7-dimethyl-3-(1-(methylsulfonyl)piperidin-4-yl)-3,4-dihydro-5H-pyrazolo[3,4-c]isoquinolin-5-one] | < 1
Cc1cc(C(C)Nc2ccc(Cl)nc2-c2ccc3c(c2)CN(C)C3=O)c2c(c1)c(=O)n(C)c1c2cnn1C1CCN(S(C)(=O)=O)CC1 (centres unmarked) [Example 191, 9-(1-((6-chloro-2-(2-methyl-1-oxoisoindolin-5-yl)pyridin-3-yl)amino)ethyl)-4,7-dimethyl-3-(1-(methylsulfonyl)piperidin-4-yl)-3,4-dihydro-5H-pyrazolo[3,4-c]isoquinolin-5-one] | < 1
Cc1cc(C(C)Nc2ccc(Cl)nc2-c2ccc3ncccc3c2)c2c(c1)c(=O)n(C)c1c2cnn1C1CCN(S(C)(=O)=O)CC1 (centres unmarked) [Example 192, 9-(1-((6-chloro-2-(quinolin-6-yl)pyridin-3-yl)amino)ethyl)-4,7-dimethyl-3-(1-(methylsulfonyl)piperidin-4-yl)-3,4-dihydro-5H-pyrazolo[3,4-c]isoquinolin-5-one] | < 1
Cc1cc(C(C)Nc2ccc(Cl)nc2-c2cnn(C)c2)c2c(c1)c(=O)n(C)c1c2cnn1C1CCN(C(=O)CO)CC1 (centres unmarked) [Example 193, 9-[1-[[6-Chloro-2-(1-methylpyrazol-4-yl)-3-pyridyl]amino]ethyl]-3-[1-(2-hydroxyacetyl)-4-piperidyl]-4,7-dimethyl-pyrazolo[3,4-c]isoquinolin-5-one] | < 1
